These results are taken from patent publication US10167297B2, “Substituted pyridine compounds having herbicidal activity” (BASF SE, priority 2014, dated 2019).

In general, plant injury refers to how far the test organism was held down. Lower therefore signals a weak effect. What is called pest or weed control is how far the test organism was held down. The low end stands for weak suppression, the high end for strong suppression.

Assay type in all cases: in vivo
In test [1] the test system is Setaria viridis. The experiment in a line: greenhouse post-emergence herbicidal activity (use examples). The following applies: SETVI, 0.063 kg/ha, scale 0 to 100. An excerpt:
(§1) The seeds of the test plants were sown separately for each species. For the pre-emergence treatment, the active ingredients, which had been suspended or emulsified in water, were applied directly after sowing by means of finely distributing nozzles. The containers were irrigated gently to promote germination and growth and subsequently covered with transparent plastic hoods until the plants had rooted. This cover caused uniform germination of the test plants, unless this had been impaired by the active ingredients. For the post-emergence treatment, the test plants were first grown to a height of 3 to 15 cm, depending on the plant habit, and only then treated with the active ingredients which had been suspended or emulsified in water. For this purpose, the test plants were either sown directly and grown in the same containers, or they were first grown separately as seedlings and transplanted into the test containers a few days prior to treatment. Depending on the species, the plants were kept at 10-25° C. or 20-35° C., respectively. The test period extended over 2 to 4 weeks. During this time, the plants were tended, and their response to the individual treatments was evaluated. Evaluation was carried out using a scale from 0 to 100. 100 means no emergence of the plants, or complete destruction of at least the aerial moieties, and 0 means no damage, or normal course of growth. A good herbicidal activity is given at values of at least 70 and a very good herbicidal activity is given at values of at least 85. The plants used in the greenhouse experiments were of the following species: [table]

The next test deals with Stellaria media. Described as above. The following applies: STEME, scale 0 to 100.
From the text: as §1

Test [2] deals with Polygonum convolvulus. Described as above. The note with it: POLCO, 0.063 kg/ha, scale 0 to 100.
From the text: as §1

For test [3], the system named is Zea mays. Put plainly: greenhouse post-emergence herbicidal activity on crop plant corn (use examples). The note with it: ZEAMX (corn, crop plant), scale 0 to 100; for plant injury at 125 g/ha: 0.125 kg/ha.
From the text: as §1

A further test relates to Avena Fatua. Put plainly: comparative greenhouse post-emergence herbicidal activity. The note with it: AVEFA, 20 days, scale 0 to 100. As to the method: (§2) The herbicidal activity of the compounds I-5 (N-[2,6-dichloro-3-(8-hydroxy-6,6-dioxo-5H-thiopyrano[4,3-b]pyridin-7-yl)phenyl]-N-methyl-acetamide) and 1-19 (Methyl N-[2,6-dichloro-3-(8-hydroxy-5,5-dimethyl-6,6-dioxo-thiopyrano[4,3-b]pyridin-7-yl)phenyl]-N-methyl-carbamate) according to this invention was tested in comparison with compound I-5 disclosed on page 147 of WO 2012/084755 A1 (not of the invention). These comparative experiments were performed in greenhouse by using the following procedure:
(§3) The culture containers used were plastic flowerpots containing loamy sand with approximately 3.0% of humus as the substrate. The seeds of the test plants were sown separately for each species.
(§4) For the post-emergence treatment, the test plants were first grown to a height of 3 to 15 cm, depending on the plant habit, and only then treated with the active ingredients which had been suspended or emulsified in water using a volume of 375 I/ha and 1% of an Adjuvant. For this purpose, the test plants were either sown directly and grown in the same containers, or they were first grown separately as seedlings and transplanted into the test containers a few days prior to treatment.
(§5) Depending on the species, the plants were kept at 10-25° C. (cold season grasses) or 20-35° C. (warm season grasses), respectively.
(§6) The test period extended over 20 days. During this time, the plants were tended, and their response to the individual treatments was evaluated.
(§7) Evaluation was carried out using a scale from 0 to 100. 100 means complete destruction of at least the aerial moieties, and 0 means no damage, or normal course of growth. A good herbicidal activity is given at values of at least 70 and a very good herbicidal activity is given at values of at least 85.
(§8) The plants used in the greenhouse experiments were of the following species:
(§9) The application rates in the post-emergence treatment were 0.1, 0.05 and 0.025 kg/ha, respectively.

The test system of test [4] is Setaria viridis. The description is as above. The following applies: SETVI, 20 days, scale 0 to 100. As to the method: as §2, §3, §4, §5, §6, §7, §8, §9
The next test relates to Lolium Multiflori. Described as above. The following applies: LOLMU, 20 days, scale 0 to 100. As to the method: as §2, §3, §4, §5, §6, §7, §8, §9
Test [5] deals with Polygonum convolvulus. The test is described as above. The following applies: POLCO, 20 days, scale 0 to 100. As to the method:
as §2, §3, §4, §5, §6, §7, §8, §9

The next test has as its system Bromus steliris. The test is described as above. The note with it: BROST, 20 days, scale 0 to 100. As to the method:
as §2, §3, §4, §5, §6, §7, §8, §9

The test system of another test is Digitaria sanguine. The test is described as above. The following applies: DIGSA, 20 days, scale 0 to 100. As to the method: as §2, §3, §4, §5, §6, §7, §8, §9
The subject of test [6] is Echinocloa crus-galli. The test is described as above. The note with it: ECHCG, 20 days, scale 0 to 100. As to the method: as §2, §3, §4, §5, §6, §7, §8, §9
For another test, the system named is Ambrosia artimisifolio. The description is as above. The note with it: AMBEL, 20 days, scale 0 to 100. As to the method:
as §2, §3, §4, §5, §6, §7, §8, §9

For the next test, the system named is Abuthilon avicennae. The description is as above. The note with it: ABUTH, 20 days, scale 0 to 100. As for the experimental part: as §2, §3, §4, §5, §6, §7, §8, §9
Another test deals with Amaranthus retroflexus. The experiment in a line: greenhouse post-emergence herbicidal activity (use examples). The note with it: AMARE, scale 0 to 100.
From the text: as §1

The test system of another test is Setaria faberi. The description is as above. The following applies: SETFA, scale 0 to 100.
From the text: as §1

Test [7] has as its system Echinocloa crus-galli. The description is as above. The following applies: Echinochloa crus-galli, ECHCG, scale 0 to 100.
From the text: as §1

Test [8] relates to Zea mays. The experiment in a line: comparative greenhouse post-emergence herbicidal activity on crop plant corn. The note with it: ZEAMX (corn, crop plant), 20 days, scale 0 to 100. As to the method:
as §2, §3, §4, §5, §6, §7, §8, §9

The next test relates to Chenopodium album. The experiment in a line: greenhouse post-emergence herbicidal activity (use examples). The following applies: CHEAL, 0.125 kg/ha, scale 0 to 100.
From the text: as §1

Regarding `CN(C(=O)C1CC1)c1c(Cl)ccc(C2=C(O)c3ncccc3C(C)(C)S2(=O)=O)c1Cl` [Compound I-9, N-[2,6-dichloro-3-(8-hydroxy-5,5-dimethyl-6,6-dioxo-thiopyrano[4,3-b]pyridin-7-yl)phenyl]-N-methyl-cyclopropanecarboxamide], the figures for the Herbicidal activity with Setaria viridis [1], in the test on Stellaria media (0.063 kg/ha) and in the test on Polygonum convolvulus [2] were 95, 100 and 95, respectively. Moreover, the plant injury at 63 g/ha in the test on Zea mays [3] (0.063 kg/ha) worked out at 5%.

For `COC(=O)N(C)c1c(Cl)ccc(C2=C(O)c3ncccc3C(C)(C)S2(=O)=O)c1Cl` [Compound I-19, Methyl N-[2,6-dichloro-3-(8-hydroxy-5,5-dimethyl-6,6-dioxo-thiopyrano[4,3-b]pyridin-7-yl)phenyl]-N-methyl-carbamate], the Herbicidal activity in the test with Avena Fatua (0.025 kg/ha) turned out to be 50; in the test on Avena Fatua (0.05 kg/ha) it was 80; in the test on Avena Fatua (0.1 kg/ha) it was 90; in the test with Setaria viridis [4] (0.025 kg/ha), 85; in the test with Setaria viridis [4] (0.05 kg/ha), 100; in the test on Setaria viridis [4] (0.1 kg/ha), 100. Moreover, the Herbicidal activity in the test on Lolium Multiflori (0.025 kg/ha) turned out to be 25; with Lolium Multiflori (0.05 kg/ha), 35; in the test with Lolium Multiflori (0.1 kg/ha) it was 75; with Polygonum convolvulus [5] (0.025 kg/ha), 45; in the test with Polygonum convolvulus [5] (0.05 kg/ha), 45; in the test on Polygonum convolvulus [5] (0.1 kg/ha), 95. Moreover, the Herbicidal activity with Bromus steliris (0.025 kg/ha) is 80; with Bromus steliris (0.05 kg/ha), 85; with Bromus steliris (0.1 kg/ha) it was 95; with Digitaria sanguine (0.025 kg/ha), 95; in the test with Digitaria sanguine (0.05 kg/ha), 98; in the test on Digitaria sanguine (0.1 kg/ha), 95. Further, the Herbicidal activity in the test with Echinocloa crus-galli [6] (0.025 kg/ha) is 85; in the test on Echinocloa crus-galli [6] (0.05 kg/ha), 90; in the test on Echinocloa crus-galli [6] (0.1 kg/ha) it was 95; in the test on Ambrosia artimisifolio (0.025 kg/ha), 85; with Ambrosia artimisifolio (0.05 kg/ha), 95; with Ambrosia artimisifolio (0.1 kg/ha), 90. In addition, the Herbicidal activity is listed as 75 in the test with Abuthilon avicennae (0.025 kg/ha); 85 in the test on Abuthilon avicennae (0.05 kg/ha); 98 in the test with Abuthilon avicennae (0.1 kg/ha); 98 in the test with Amaranthus retroflexus (0.050 kg/ha); 98 with Setaria faberi (0.050 kg/ha); 15 in the test on Zea mays [8] (0.025 kg/ha). Also, in the test with Zea mays [8] (0.05 kg/ha), the Herbicidal activity is recorded as 35. This compound also yielded a pest or weed control at 50 g/ha in the test with Echinocloa crus-galli [7] (0.050 kg/ha) of 95%. The compound also returned a plant injury at 50 g/ha with Zea mays [3] (0.050 kg/ha) of 20%.

Regarding `CC(=O)N(C)c1c(Cl)ccc(C2=C(O)c3ncccc3CS2(=O)=O)c1Cl` [Compound I-5, N-[2,6-dichloro-3-(8-hydroxy-6,6-dioxo-5H-thiopyrano[4,3-b]pyridin-7-yl)phenyl]-N-methyl-acetamide], the Herbicidal activity with Avena Fatua (0.025 kg/ha) is 55; in the test on Avena Fatua (0.05 kg/ha), 85; with Avena Fatua (0.1 kg/ha), 90; in the test with Setaria viridis [4] (0.025 kg/ha), 90; with Setaria viridis [4] (0.05 kg/ha), 90; in the test with Setaria viridis [4] (0.1 kg/ha) it was 90. Also, the Herbicidal activity worked out at 25 with Lolium Multiflori (0.025 kg/ha); 55 with Lolium Multiflori (0.05 kg/ha); 80 in the test with Lolium Multiflori (0.1 kg/ha); 35 with Polygonum convolvulus [5] (0.025 kg/ha); 45 in the test on Polygonum convolvulus [5] (0.05 kg/ha); 80 with Polygonum convolvulus [5] (0.1 kg/ha). For the same compound, the Herbicidal activity in the test on Bromus steliris (0.025 kg/ha) worked out at 98; in the test on Bromus steliris (0.05 kg/ha) it was 98; with Bromus steliris (0.1 kg/ha) it was 98; with Digitaria sanguine (0.025 kg/ha), 90; in the test on Digitaria sanguine (0.05 kg/ha), 95; with Digitaria sanguine (0.1 kg/ha) it was 100. In addition, the Herbicidal activity with Echinocloa crus-galli [6] (0.025 kg/ha) was 90; in the test on Echinocloa crus-galli [6] (0.05 kg/ha) it was 100; with Echinocloa crus-galli [6] (0.1 kg/ha) it was 100; in the test with Ambrosia artimisifolio (0.025 kg/ha) it was 90; with Ambrosia artimisifolio (0.05 kg/ha), 100; with Ambrosia artimisifolio (0.1 kg/ha) it was 95. Moreover, the Herbicidal activity was 70 with Abuthilon avicennae (0.025 kg/ha); 80 with Abuthilon avicennae (0.05 kg/ha); 90 in the test with Abuthilon avicennae (0.1 kg/ha); 98 in the test on Amaranthus retroflexus (0.125 kg/ha); 98 with Chenopodium album; 15 in the test on Zea mays [8] (0.025 kg/ha). This compound also returned a Herbicidal activity in the test with Zea mays [8] (0.05 kg/ha) of 45. In the test with Echinocloa crus-galli [7] (0.125 kg/ha), this compound had a pest or weed control at 125 g/ha of 95%. In the test on Zea mays [3], this compound gave a plant injury at 125 g/ha of 10%.

On to `CN(C(=O)C(F)F)c1c(Cl)ccc(C2=C(O)c3ncccc3C(C)(C)S2(=O)=O)c1Cl` [Compound I-18, N-[2,6-dichloro-3-(8-hydroxy-5,5-dimethyl-6,6-dioxo-thiopyrano[4,3-b]pyridin-7-yl)phenyl]-2,2-difluoro-N-methyl-acetamide], for which the Herbicidal activity in the test with Setaria faberi (0.125 kg/ha) worked out at 98; in the test on Stellaria media (0.125 kg/ha), 100. The plant injury at 125 g/ha in the test with Zea mays [3] is 30%.
